Reference: ChEMBL document CHEMBL1155151, “First occurrence of an Escherichia coli clinical isolate producing the VIM-1/VIM-2 hybrid metallo-beta-lactamase VIM-12” (2007)
In brackets after ≈: the same amount, converted by molar mass.

Tests used:
Assay type in all cases: functional
Escherichia coli [1] = experiment: Antibacterial activity against Escherichia coli transconjugant carrying pEC28 isolate eby Etest
Escherichia coli [2] = experiment: Antibacterial activity against metallo-beta-lactamase VIM12 expressing Escherichia coli 28 isolate from decubitus ulcer infection patient by Etest
Escherichia coli [3] = experiment: Antibacterial activity against Escherichia coli 26R793 by Etest

For NCC[C@H](O)C(=O)N[C@@H]1C[C@H](N)[C@@H](O[C@H]2O[C@H](CN)[C@@H](O)[C@H](O)[C@H]2O)[C@H](O)[C@H]1O[C@H]1O[C@H](CO)[C@@H](O)[C@H](N)[C@H]1O [AMIKACIN], the MIC (Escherichia coli [1]) was 48 µg/mL (≈ 82 µM), the MIC (Escherichia coli [2]) was 128 µg/mL (≈ 219 µM) and the MIC (Escherichia coli [3]) was 2 µg/mL (≈ 3.42 µM).
For CC1(C)S[C@@H]2[C@H](NC(=O)[C@H](N)c3ccc(O)cc3)C(=O)N2[C@H]1C(=O)O [AMOXICILLIN], the MIC (Escherichia coli [1]) was 32 µg/mL (≈ 87.6 µM), the MIC (Escherichia coli [2]) was > 256 µg/mL and the MIC (Escherichia coli [3]) was 4 µg/mL (≈ 10.9 µM).
C[C@H]1[C@H](NC(=O)/C(=N\OC(C)(C)C(=O)O)c2csc(N)n2)C(=O)N1S(=O)(=O)O [AZTREONAM] gave an MIC (Escherichia coli [1]) of 0.5 µg/mL (≈ 1.15 µM), an MIC (Escherichia coli [2]) of 1 µg/mL (≈ 2.3 µM) and an MIC (Escherichia coli [3]) of 0.094 µg/mL (≈ 0.216 µM).
CO/N=C(\C(=O)N[C@@H]1C(=O)N2C(C(=O)[O-])=C(C[N+]3(C)CCCC3)CS[C@H]12)c1csc(N)n1 [CEFEPIME] showed an MIC (Escherichia coli [1]) of 1 µg/mL (≈ 2.08 µM), an MIC (Escherichia coli [2]) of 12 µg/mL (≈ 25 µM) and an MIC (Escherichia coli [3]) of 0.094 µg/mL (≈ 0.196 µM).
In the case of CO/N=C(\C(=O)N[C@@H]1C(=O)N2C(C(=O)O)=C(COC(C)=O)CS[C@H]12)c1csc(N)n1 [CEFOTAXIME], the MIC (Escherichia coli [1]) is reported as 8 µg/mL (≈ 17.6 µM), the MIC (Escherichia coli [2]) is reported as > 32 µg/mL and the MIC (Escherichia coli [3]) is reported as 0.094 µg/mL (≈ 0.206 µM).
CO[C@@]1(NC(=O)Cc2cccs2)C(=O)N2C(C(=O)O)=C(COC(N)=O)CS[C@@H]21 [CEFOXITIN] was tested, and the MIC (Escherichia coli [1]) was 32 µg/mL (≈ 74.9 µM), the MIC (Escherichia coli [2]) was > 256 µg/mL and the MIC (Escherichia coli [3]) was 8 µg/mL (≈ 18.7 µM).
In the case of CC(C)(O/N=C(\C(=O)N[C@@H]1C(=O)N2C(C(=O)[O-])=C(C[n+]3ccccc3)CS[C@H]12)c1csc(N)n1)C(=O)O [CEFTAZIDIME], the MIC (Escherichia coli [1]) is reported as 4 µg/mL (≈ 7.32 µM), the MIC (Escherichia coli [2]) is reported as > 256 µg/mL and the MIC (Escherichia coli [3]) is reported as 0.75 µg/mL (≈ 1.37 µM).
With O=C(O)c1cn(C2CC2)c2cc(N3CCNCC3)c(F)cc2c1=O [CIPROFLOXACIN] the MIC (Escherichia coli [1]) was 0.047 µg/mL (≈ 0.142 µM), the MIC (Escherichia coli [2]) was 0.047 µg/mL (≈ 0.142 µM) and the MIC (Escherichia coli [3]) was 0.047 µg/mL (≈ 0.142 µM).
With C[C@@H](O)[C@H]1C(=O)N2C(C(=O)O)=C(S[C@@H]3CN[C@H](C(=O)Nc4cccc(C(=O)O)c4)C3)[C@H](C)[C@H]12 [ERTAPENEM] the MIC (Escherichia coli [1]) was 0.094 µg/mL (≈ 0.198 µM), the MIC (Escherichia coli [2]) was 0.5 µg/mL (≈ 1.05 µM) and the MIC (Escherichia coli [3]) was 0.064 µg/mL (≈ 0.135 µM).
C[C@@H](O)[C@H]1C(=O)N2C(C(=O)O)=C(SCCNC=N)C[C@H]12 [IMIPENEM ANHYDROUS] showed an MIC (Escherichia coli [2]) of 1 µg/mL (≈ 3.34 µM) and an MIC (Escherichia coli [3]) of 0.5 µg/mL (≈ 1.67 µM).
Molecule C[C@@H](O)[C@H]1C(=O)N2C(C(=O)O)=C(S[C@@H]3CN[C@H](C(=O)N(C)C)C3)[C@H](C)[C@H]12 [MEROPENEM] has an MIC (Escherichia coli [1]) of 0.023 µg/mL (≈ 0.06 µM), an MIC (Escherichia coli [2]) of 0.25 µg/mL (≈ 0.652 µM) and an MIC (Escherichia coli [3]) of 0.032 µg/mL (≈ 0.0834 µM).
In the case of CN(C)[C@@H]1C(O)=C(C(N)=O)C(=O)[C@@]2(O)C(O)=C3C(=O)c4c(O)cccc4[C@@](C)(O)[C@H]3C[C@@H]12 [TETRACYCLINE], the MIC (Escherichia coli [1]) is reported as 1 µg/mL (≈ 2.25 µM), the MIC (Escherichia coli [2]) is reported as > 256 µg/mL and the MIC (Escherichia coli [3]) is reported as 1 µg/mL (≈ 2.25 µM).
